Data from patent publication US20160199481A1 (priority 2013, published 2016).
Entries after “also recorded” stand apart in the source; their conditions may differ.

Experiments:
Type in all cases: cell-based, influenza A
[1] = tested on: WT HA/G147R NA virus
[2] = tested on: PassMut HA/G147R NA virus
[3] = tested on: WT HA/G147R NA virus; remark: listed apart in the source
[4] = tested on: PassMut HA/G147R NA virus; remark: listed apart in the source
[5] = tested on: G147R NA-only VLPs

## oseltamivir
[1]
  neutralization of infectivity (percent infectivity remaining): partially neutralized by oseltamivir; also recorded: intermediate phenotype
[2]
  neutralization of infectivity (percent infectivity remaining): nearly completely neutralized by oseltamivir; also recorded: strongly neutralized at low nanomolar oseltamivir concentrations
[3]
  inhibition of agglutination by oseltamivir: uninhibited at all oseltamivir concentrations tested
[4]
  oseltamivir concentration down to which agglutination was inhibited: 1.5 nM
[5]
  oseltamivir concentration down to which agglutination was inhibited: 0.12 nM
  reversal of agglutination by G147R VLPs: reversed the agglutination
